Source: patent US7390820B2, “Substituted quinolinone derivatives and methods of use” (Amgen Inc., priority 2003, dated 2008)

Tested on: Human Umbilical Vein Endothelial cells
Test: HUVEC proliferation assay (VEGF-stimulated)
Format: cell-based
Conditions: 72 h, CyQuant, read-out: inhibition of VEGF-stimulated HUVEC proliferation
Description: Human Umbilical Vein Endothelial cells are purchased from Clonetics, Inc., as cryopreserved cells harvested from a pool of donors. These cells, at passage 1, are thawed and expanded in EBM-2 complete medium, until passage 2 or 3. The cells are trypsinized, washed in DMEM+10% FBS+antibiotics, and spun at 1000 rpm for 10 min. Prior to centrifugation of the cells, a small amount is collected for a cell count. After centrifugation, the medium is discarded, and the cells are resuspended in the appropriate volume of DMEM+10% FBS+antibiotics to achieve a concentration of 3×10^5 cells/mL. Another cell count is performed to confirm the cell concentration. The cells are diluted to 3×10^4 cells/mL in DMEM+10% FBS+antibiotics, and 100 μL of cells are added to a 96-well plate. The cells are incubated at 37° C. for 22 h.
Prior to the completion of the incubation period, compound dilutions are prepared. Five-point, five-fold serial dilutions are prepared in DMSO, at concentrations 400-fold greater than the final concentrations desired. 2.5 μL of each compound dilution are diluted further in a total of 1 mL DMEM+10% FBS+antibiotics (400× dilution). Medium containing 0.25% DMSO is also prepared for the 0 μM compound sample. At the 22 h timepoint, the medium is removed from the cells, and 100 μL of each compound dilution is added. The cells are incubated at 37° C. for 2-3 h.
During the compound pre-incubation period, the growth factors are diluted to the appropriate concentrations. Solutions of DMEM+10% FBS+antibiotics, containing either VEGF or bFGF at the following concentrations: 50, 10, 2, 0.4, 0.08, and 0 ng/mL are prepared. […]
At the completion of the 72 h incubation period, the medium is removed, and the cells are washed twice with PBS. […] The cells are thawed and analyzed using the CyQuant fluorescent dye (Molecular Probes C-7026), following the manufacturer's recommendations. The plates are read on a Victor/Wallac 1420 workstation at 485 nm/530 nm (excitation/emission). Raw data are collected and analyzed using a 4-parameter fit equation in XLFit. IC50 values are then determined.

| Structure (SMILES) | IC50 [µM] |
| --- | --- |
| CC(C)(C)c1ccc(-n2ncc3cccc(NCc4ccncc4)c3c2=O)cc1 [Example 1, 2-(4-(1,1-Dimethylethyl)phenyl)-8-((4-pyridinylmethyl)amino)-1(2H)-phthalazinone] | < 0.5 |
| CC(C)(C)c1ccc(-n2ncc3cccc(NCc4c[nH]c5ncccc45)c3c2=O)cc1 [Example 2, 2-(4-(1,1-Dimethylethyl)phenyl)-8-((1H-pyrrolo[2,3-b]pyridin-3-ylmethyl)amino)-1(2H)-phthalazinone] | < 0.5 |
| CC(C)(C)c1ccc(N2CCc3cccc(NCc4ccncc4)c3C2=O)cc1 [Example 3, 2-(4-(1,1-Dimethylethyl)phenyl)-8-((4-pyridinylmethyl)amino)-3,4-dihydro-1(2H)-isoquinolinone] | < 0.5 |
